Where a SMILES comes first, the peptide text is derived from it. Bridges are numbered along the chain shown (N, C = ends). [ ]: non-standard residue; d: D form. The star is where a group is joined. Ileψ(thiazoline)Cys = CC[C@H](C)[C@H](N)C1=N[C@H](C(=O)*)CS1; dOrn = NCCC[C@@H](N)C(=O)O
tested on: LLO strain; assay: antibiogram of the strain LLO with antibiotic discs; assay type: cell-based, Lactococcus lactis; settings: antibiotic discs on Mueller Hinton medium, 5% horse blood, pH 7.3; 48 hours at ambient temperature; streptomycin 10 U.I., kanamycin 30 U.I., gentamicin 10 U.I.
Procedure: An antibiogram has been produced with the strain LLO to study its resistance to several antibiotics.
The test is carried out on Mueller Hinton medium containing 1.7% agar and 5% horse blood, the pH is 7.3. The thickness of the agar in the Petri dishes is constant, it is 4 mm. It is a standardized medium according to the O.M.S. standards.
The LLO strain is cultivated in an MRS broth, pH 6.5, for […] at 15° C. until there is obtained the stationary phase. The culture is diluted to 1/10th in a Mueller Hinton broth. The approximate concentration of the suspension is 10^6 bacteria/ml.
The agar media are completely covered with 2 ml of the suspension. The excess liquid is withdrawn and the dishes are dried 10 minutes at ambient temperature. The antibiotic discs are deposited with the help of tongs (4 maximum). The dishes are incubated at ambient temperature for 48 hours.

| Compound | Result (antibiogram) |
| --- | --- |
| CC[C@H](C)[C@H](N)C1=N[C@H](C(=O)N[C@@H](CC(C)C)C(=O)N[C@H](CCC(=O)O)C(=O)N[C@H](C(=O)N[C@H]2CCCCNC(=O)[C@H](CC(N)=O)NC(=O)[C@@H](CC(=O)O)NC(=O)[C@H](Cc3cnc[nH]3)NC(=O)[C@@H](Cc3ccccc3)NC(=O)[C@H]([C@@H](C)CC)NC(=O)[C@@H](CCCN)NC2=O)[C@@H](C)CC)CS1 [Bacitracin] ({Ileψ(thiazoline)Cys}-L[dE]IK[dOrn]I[dF]H[dD]N; lactam 4-C) | Noticeable |
| Gentamicin | Noticeable |
| O=C(N[C@H](CO)[C@H](O)c1ccc([N+](=O)[O-])cc1)C(Cl)Cl [Chloramphenicol] | Noticeable |
| CC1(C)S[C@@H]2[C@H](NC(=O)[C@H](N)c3ccccc3)C(=O)N2[C@H]1C(=O)O [Ampicillin] | Noticeable |
| CN(C)[C@@H]1C(=O)C(C(N)=O)=C(O)[C@@]2(O)C(=O)C3=C(O)c4c(O)cccc4[C@@](C)(O)[C@H]3C[C@@H]12 [Tetracyclin] | Noticeable |
| CCC[C@@H]1C[C@@H](C(=O)N[C@@H]([C@H]2O[C@H](SC)[C@H](O)[C@@H](O)[C@H]2O)[C@@H](C)O)N(C)C1 [Lincomycin] | Noticeable |
| CC1CCc2cc(F)cc3c(=O)c(C(=O)O)cn1c23 (stereo not drawn) [Flumequin] | Resistant |
| CC1=C(C(=O)O)N2C(=O)[C@@H](NC(=O)[C@H](N)c3ccccc3)[C@H]2SC1 [Cefalexin] | Noticeable |
| CCN1CCN(c2cc3c(cc2F)c(=O)c(C(=O)O)cn3C2CC2)CC1 [Enrofloxacin] | Noticeable |
| Spiramycin | Noticeable |
| CC[C@H]1OC(=O)[C@H](C)[C@@H](O[C@H]2C[C@@](C)(OC)[C@@H](O)[C@H](C)O2)[C@H](C)[C@@H](O[C@@H]2O[C@H](C)C[C@H](N(C)C)[C@H]2O)[C@](C)(O)C[C@@H](C)C(=O)[C@H](C)[C@@H](O)[C@]1(C)O [Erythromycin] | Noticeable |
| [H]/N=C(/N)N[C@H]1[C@H](O)[C@@H](O)[C@H](O[C@@H]2O[C@@H](C)[C@](O)(C=O)[C@H]2O[C@@H]2O[C@@H](CO)[C@H](O)[C@@H](O)[C@@H]2NC)[C@@H](N/C(N)=N\[H])[C@@H]1O [Streptomycin] | Noticeable |
| c1ccoc1 [Furan] | Resistant |
| C[C@H]1c2cccc(O)c2C(O)=C2C(=O)[C@]3(O)C(O)=C(C(N)=O)C(=O)[C@@H](N(C)C)[C@@H]3[C@@H](O)[C@@H]21 [Doxycyclin] | Noticeable |
| CC1(C)S[C@@H]2[C@H](NC(=O)Cc3ccccc3)C(=O)N2[C@H]1C(=O)O [Penicillin G] | Noticeable |

Source: patent US20040249129A1, “Novel lactic bacteria of the genus lactococcus lactis and use thereof for preserving food products” (priority 2001, published 2004)
